Measurements published in patent publication US20240158446A1, “CYCLIC COMPOUND HAVING SELECTIVE INHIBITORY ACTION ON KRAS OVER HRAS AND NRAS” (CHUGAI SEIYAKU KABUSHIKI KAISHA, priority 2021, published 2024).
Read-outs that look alike come from different tables or passages of the source. *1 amine or outer side, *2 acyl side, *3 side chain or, on linkers, in order; H or OH if unused. Where a SMILES comes first, the peptide text is derived from it. Bridges are numbered along the chain shown (N, C = ends). [ ]: non-standard residue; d: D form. The star is where a group is joined. hPhe(3-Cl-4-CF3) = N[C@@H](CCc1ccc(C(F)(F)F)c(Cl)c1)C(=O)O; X3 = CCCN([C@H](C(=O)[*:2])C1CCCC1)[*:1]; NMeGly(cPent) = CN[C@H](C(=O)O)C1CCCC1; NMeD = CN[C@@H](CC(=O)O)C(=O)O; NMeL = CN[C@@H](CC(C)C)C(=O)O; Morpholide = C1CN(*)CCO1; NMeA = CN[C@@H](C)C(=O)O; Ac5c = NC1(C(=O)O)CCCC1; Aze = O=C(O)[C@@H]1CCN1; Sar = CNCC(=O)O

Experiments:
[1] = target: GDP-bound HRAS wild-type protein (Homo sapiens, UniProt P01112); test: Binding to HRAS by surface plasmon resonance (SPR), Single Cycle Kinetics; settings: for HRAS/KRAS (ratio of KD value for HRAS to KD value for KRAS): SPR, GDP-bound HRAS wild-type protein vs GDP-bound KRAS wild-type protein; for HRAS/KRAS (ratio of KD value with respect to GDP-bound HRAS wild-type protein to KD value with respect to KRAS): SPR KD ratio HRAS/KRAS, class symbols
[2] = tested on: human lung cancer strain NCI-H441;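 also: cell proliferation inhibition after four days measured by CellTiter-Glo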
[3] = target: GDP-bound KRAS wild-type protein (Homo sapiens, UniProt P01116); test: Binding to KRAS by surface plasmon resonance (SPR), Single Cycle Kinetics; settings: GDP-bound KRAS wild-type protein
[4] = target: GDP-bound NRAS wild-type protein (Homo sapiens, UniProt P01111); test: Binding to NRAS by surface plasmon resonance (SPR), Single Cycle Kinetics; settings: for NRAS/KRAS (ratio of KD value for NRAS to KD value for KRAS): SPR, GDP-bound NRAS wild-type protein vs GDP-bound KRAS wild-type protein; for NRAS/KRAS (ratio of KD value with respect to GDP-bound NRAS wild-type protein to KD value with respect to KRAS): SPR KD ratio NRAS/KRAS, class symbols
[5] = KRAS KD (M), SPR Single Cycle Kinetics, 1:1 binding model
[6] = SPR, Single Cycle Kinetics, 1:1 binding model, read-out: KRAS KD
[7] = SPR Single Cycle Kinetics, 1:1 binding model, read-out: KRAS KD
[8] = SPR, Single Cycle Kinetics, read-out: KRAS KD

Sequence of GDP-bound KRAS wild-type protein (P01116 whole entry): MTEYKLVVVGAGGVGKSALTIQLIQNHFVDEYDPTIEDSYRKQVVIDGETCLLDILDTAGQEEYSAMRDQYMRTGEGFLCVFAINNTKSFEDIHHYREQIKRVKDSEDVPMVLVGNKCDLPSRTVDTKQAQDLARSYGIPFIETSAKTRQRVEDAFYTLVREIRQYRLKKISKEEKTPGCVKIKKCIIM
Sequence of GDP-bound NRAS wild-type protein (P01111 whole entry): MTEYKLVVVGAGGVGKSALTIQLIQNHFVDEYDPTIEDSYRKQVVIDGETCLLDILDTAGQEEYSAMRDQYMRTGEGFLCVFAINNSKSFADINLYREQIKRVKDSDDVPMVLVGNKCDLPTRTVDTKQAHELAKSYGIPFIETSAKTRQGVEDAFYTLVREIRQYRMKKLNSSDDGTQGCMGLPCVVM
Sequence of GDP-bound HRAS wild-type protein (P01112 whole entry): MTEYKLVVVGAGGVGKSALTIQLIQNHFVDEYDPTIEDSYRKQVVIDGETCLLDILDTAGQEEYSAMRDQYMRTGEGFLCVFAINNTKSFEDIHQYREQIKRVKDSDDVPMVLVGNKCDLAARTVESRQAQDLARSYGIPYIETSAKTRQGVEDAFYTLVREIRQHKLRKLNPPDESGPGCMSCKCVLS

Compound | IC50 [2] [nM] | Kd [3, 6] [M] | Kd [3, 7] [M] | Kd [3, 8] [M] | HRAS/KRAS (ratio of KD value for HRAS to KD value for KRAS) [1] | Kd [3, 5] [M] | NRAS/KRAS (ratio of KD value for NRAS to KD value for KRAS) [4] | HRAS/KRAS (ratio of KD value for HRAS to KD value for KRAS) ([1]; KD ratio class) | NRAS/KRAS (ratio of KD value for NRAS to KD value for KRAS) ([4]; KD ratio class) | HRAS/KRAS (ratio of KD value with respect to GDP-bound HRAS wild-type protein to KD value with respect to KRAS) [1] | NRAS/KRAS (ratio of KD value with respect to GDP-bound NRAS wild-type protein to KD value with respect to KRAS) [4]
CCCN1C(=O)[C@@H]2CCN2C(=O)[C@H](C)N(C)C(=O)[C@H]([C@@H](C)CC)NC(=O)[C@H](CC(C)C)N(C)C(=O)C[C@@H](C(=O)N2CCOCC2)N(C)C(=O)[C@H](C2CCCC2)N(C)C(=O)C2(CCCC2)NC(=O)[C@@H]2CCCN2C(=O)[C@H](CCc2ccc(C(F)(F)F)c(Cl)c2)NC(=O)CN(C)C(=O)[C@@H]1C1CCCC1 [PP0054] ([NMeL]I[NMeA][Aze][X3][Sar][hPhe(3-Cl-4-CF3)]P[Ac5c][NMeGly(cPent)][NMeD]-Morpholide; lactam N-11) | 82 |  |  |  | C (A compound having a KD ratio of 0.1 or more and less than 3 is denoted as C) | 4.5e-09 | C (A compound having a KD ratio of 0.1 or more and less than 3 is denoted as C) |  |  |  | 
CC[C@H](C)[C@@H]1NC(=O)[C@H](COC)N(C)C(=O)C[C@@H](C(=O)N2CCCCC2)N(C)C(=O)[C@H](C2CCCC2)N(C)C(=O)C2(CC(C)(C)C2)NC(=O)[C@@H]2C[C@@H](OC(C)C)CN2C(=O)[C@H](CCc2cc(F)c(C(F)(F)F)c(F)c2)NC(=O)CN(C)C(=O)[C@H](Cc2ccc(C(F)(F)F)cc2)N2CC/C=C\C[C@@H](C2=O)N(C)C(=O)CN(C2CC2)C1=O [PP2667] | 30.6 |  | 1.8e-09 |  |  |  |  |  |  | A (a compound having 10 or more and less than 20 is denoted as A) | A (a compound having 10 or more and less than 20 is denoted as A)
CCC[C@H]1C(=O)N[C@@H]([C@@H](C)CC)C(=O)N(C)CC(=O)N(C)[C@H]2C/C=C\CCN(C2=O)[C@@H](Cc2ccc(C(F)(F)F)cc2)C(=O)N(C)CC(=O)N[C@@H](CCc2cc(Cl)c3c(ccn3C)c2)C(=O)N2C[C@H](OCC)C[C@H]2C(=O)NC2(CC(C)(C)C2)C(=O)N(C)[C@@H](C(CC)CC)C(=O)N(C)[C@H](C(=O)N(C)C)CC(=O)N1C [PP2896] | 79.3 |  |  |  |  | 2.8e-09 |  |  |  | A (a compound having 10 or more and less than 20 is denoted as A) | A (a compound having 10 or more and less than 20 is denoted as A)
CCO[C@@H]1C[C@H]2C(=O)N(C)C3(CC(C)(C)C3)C(=O)N(C)[C@@H](C3CCCC3)C(=O)N(C)[C@H](C(=O)N(C)C)CC(=O)N(C)[C@H]3CCC/C=C/c4ccc(cc4)C[C@@H](C(=O)N(C)CC(=O)N[C@@H](CCc4ccc(Cl)c(Cl)c4)C(=O)N2C1)N1CC/C=C\C[C@@H](C1=O)N(C)C(=O)CN(C1CC1)C(=O)[C@H]([C@@H](C)CC)NC3=O [PP3061] | 4.4 |  |  | 1.3e-10 | A (a compound having 10 or more and less than 20 is denoted as A) |  | A (a compound having 10 or more and less than 20 is denoted as A) |  |  |  | 
CCC(CC)[C@H]1C(=O)N(C)[C@H](C(=O)N(C)C)CC(=O)N(C)[C@@H](COC)C(=O)N[C@@H]([C@@H](C)CC)C(=O)N(C2CC2)CC(=O)N(C)[C@H]2C/C=C\CCN(C2=O)[C@@H](CC2CCC(F)(F)CC2)C(=O)N(C)CC(=O)N[C@@H](CCc2cc(F)c(C(F)(F)F)c(F)c2)C(=O)N2C[C@H](OC3CCC3)C[C@H]2C(=O)NC2(CC(C)(C)C2)C(=O)N1C [PP2615] | 88.7 |  | 2e-09 |  |  |  |  |  |  | A (a compound having 10 or more and less than 20 is denoted as A) | A (a compound having 10 or more and less than 20 is denoted as A)
CCC[C@H]1C(=O)N[C@@H]([C@@H](C)CC)C(=O)N(C)CC(=O)N(C)[C@H]2C/C=C\CCN(C2=O)[C@@H](CC2CCCCC2)C(=O)N(C)CC(=O)N[C@@H](CCc2ccc(C(F)(F)F)c(OC)c2)C(=O)N2C[C@@H](C)C[C@H]2C(=O)N(C)C2(CCC2)C(=O)N(C)[C@@H](C2CCCC2)C(=O)N(C)[C@H](C(=O)N(C)C)CC(=O)N1C [PP2370] | 25.7 |  |  | 5.4e-10 | B (a compound having 3 or more and less than 10 is denoted as B) |  | B (a compound having 3 or more and less than 10 is denoted as B) |  |  |  | 
CCO[C@@H]1C[C@H]2C(=O)NC3(CC(C)(C)C3)C(=O)N(C)[C@@H](C(CC)CC)C(=O)N(C)[C@H](C(=O)N(C)C)CC(=O)N(C)[C@@H](CC3CC3)C(=O)N[C@@H]([C@@H](C)CC)C(=O)N(C)CC(=O)N(C)[C@H]3C/C=C\CCN(C3=O)[C@@H](CC3CCC(F)(F)CC3)C(=O)N(C)CC(=O)N[C@@H](CCc3ccc(C(F)(F)F)c(Cl)c3)C(=O)N2C1 [PP2495] | 17.4 |  |  | 8.4e-10 | A (a compound having 10 or more and less than 20 is denoted as A) |  | A (a compound having 10 or more and less than 20 is denoted as A) |  |  |  | 
CCO[C@@H]1C[C@H]2C(=O)NC3(CCC3)C(=O)N(C)[C@@H](C3CCCC3)C(=O)N(C)[C@H](C(=O)N3CCOCC3)CC(=O)N(C)[C@@H](Cc3ccccc3C#N)C(=O)N[C@@H]([C@@H](C)CC)C(=O)N(C)CC(=O)N(C)[C@H]3CCCCCN(C3=O)[C@@H](Cc3ccc(F)cc3)C(=O)N(C)CC(=O)N[C@@H](CCc3cc(F)c(C(F)(F)F)c(F)c3)C(=O)N2C1 [PP1185] | 175 |  |  | 5e-10 | B (a compound having 3 or more and less than 10 is denoted as B) |  | B (a compound having 3 or more and less than 10 is denoted as B) |  |  |  | 
CCC[C@H]1C(=O)N[C@@H]([C@@H](C)CC)C(=O)N(C)CC(=O)N(C)[C@H]2C/C=C\CCN(C2=O)[C@@H](Cc2ccc(C)cc2)C(=O)N(C)CC(=O)N[C@@H](CCc2cc(F)c(C(F)(F)F)c(F)c2)C(=O)N2C[C@H](OCC)C[C@H]2C(=O)NC2(CC(C)(C)C2)C(=O)N(C)[C@@H](CC2CCC2)C(=O)N(C)[C@H](C(=O)N(C)C)CC(=O)N1C [PP2751] | 39.3 |  | 8.5e-10 |  |  |  |  |  |  | A (a compound having 10 or more and less than 20 is denoted as A) | A (a compound having 10 or more and less than 20 is denoted as A)

The next lines start with results.

IC50 [2] [nM] | Kd [3, 6] [M] | Kd [3, 7] [M] | Kd [3, 8] [M] | Compound | HRAS/KRAS (ratio of KD value for HRAS to KD value for KRAS) [1] | Kd [3, 5] [M] | NRAS/KRAS (ratio of KD value for NRAS to KD value for KRAS) [4] | HRAS/KRAS (ratio of KD value for HRAS to KD value for KRAS) ([1]; KD ratio class) | NRAS/KRAS (ratio of KD value for NRAS to KD value for KRAS) ([4]; KD ratio class) | HRAS/KRAS (ratio of KD value with respect to GDP-bound HRAS wild-type protein to KD value with respect to KRAS) [1] | NRAS/KRAS (ratio of KD value with respect to GDP-bound NRAS wild-type protein to KD value with respect to KRAS) [4]
18.8 | 1.9e-10 |  |  | CCCOC[C@H]1C(=O)N[C@@H]([C@@H](C)CC)C(=O)N(C)CC(=O)N(C)[C@H]2C/C=C\CCN(C2=O)[C@@H](Cc2ccc(C(F)(F)F)cc2)C(=O)N(C)CC(=O)N[C@@H](CCc2cc(F)c(C(F)(F)F)c(F)c2)C(=O)N2C[C@H](OCC)C[C@H]2C(=O)NC2(CCCC2)C(=O)N(C)[C@@H](C2CCCC2)C(=O)N(C)[C@H](C(=O)N2CCCC2)CC(=O)N1C [PP1399] |  |  |  | A (a compound having 10 or more and less than 20 is denoted as A) | A (a compound having 10 or more and less than 20 is denoted as A) |  | 
79.8 | 2.5e-10 |  |  | CCO[C@@H]1C[C@H]2C(=O)NC3(CCCCC3)C(=O)N(C)[C@@H](C3CCCC3)C(=O)N(C)[C@H](C(=O)N(C)C)CC(=O)N(C)[C@@H](CC)C(=O)N[C@@H]([C@@H](C)CC)C(=O)N(C)CC(=O)N(C)[C@H]3C/C=C\CCN(C3=O)[C@@H](Cc3ccc(C(F)(F)F)cc3)C(=O)N(C)CC(=O)N[C@@H](CCc3cc(F)c(C(F)(F)F)c(F)c3)C(=O)N2C1 [PP1277] |  |  |  | A (a compound having 10 or more and less than 20 is denoted as A) | A (a compound having 10 or more and less than 20 is denoted as A) |  | 
51.2 | 3e-10 |  |  | CCCCCC[C@H]1C(=O)N[C@@H]([C@@H](C)CC)C(=O)N(C)CC(=O)N(C)[C@H]2C/C=C\CCN(C2=O)[C@@H](Cc2ccc(C(F)(F)F)cc2)C(=O)N(C)CC(=O)N[C@@H](CCc2ccc(Cl)c(Cl)c2)C(=O)N2C[C@H](OCC)C[C@H]2C(=O)NC2(CCC2)C(=O)N(C)[C@@H](C2CCCC2)C(=O)N(C)[C@H](C(=O)N(C)C)CC(=O)N1C [PP1252] |  |  |  | A (a compound having 10 or more and less than 20 is denoted as A) | AA (a compound having 20 or more is denoted as AA) |  | 
10.9 | 7.2e-11 |  |  | CCO[C@@H]1C[C@H]2C(=O)NC3(CCC3)C(=O)N(C)[C@@H](C3CCCC3)C(=O)N(C)[C@H](C(=O)N(C)C)CC(=O)N(C)[C@@H](CC3CC3)C(=O)N[C@@H]([C@@H](C)CC)C(=O)NCC(=O)N(C)[C@H]3C/C=C\CCN(C3=O)[C@@H](Cc3ccc(C(F)(F)F)cc3)C(=O)N(C)CC(=O)N[C@@H](CCc3cc(F)c(C(F)(F)F)c(F)c3)C(=O)N2C1 [PP1406, (2S,8S,12R,14S,20S,23S,27S,30S,36S,38Z)-20-cyclopentyl-27-(cyclopropylmethyl)-8-[2-[3,5-difluoro-4-(trifluoromethyl)phenyl]ethyl]-12-ethoxy-N,N,4,19,22,26,35-heptamethyl-30-[(1S)-1-methylpropyl]-3,6,9,15,18,21,25,28,31,34,42-undecaoxo-2-[[4-(trifluoromethyl)phenyl]methyl]spiro[1,4,7,10,16,19,22,26,29,32,35-undecazatricyclo[34.5.1.0^10,14]dotetracont-38-ene-17,1′-cyclobutane]-23-carboxamide] |  |  |  | B (a compound having 3 or more and less than 10 is denoted as B) | A (a compound having 10 or more and less than 20 is denoted as A) |  | 
